Measurements published in patent publication US8975291B2, “Indoles” (GlaxoSmithKline LLC, priority 2010, dated 2015).

Target: T1, EZH2 within the PRC2 complex (Homo sapiens, UniProt Q15910)
T1 construct: FLAG; made in house; host or cells: Sf9 cells
Experiment: EZH2 methyltransferase scintillation proximity assay (SPA) with PRC2 complex
Type: biochemical
Conditions: 3H-SAM methyl transfer to Histone H3 of HeLa mononucleosomes; read-out: EZH2 pIC50 (converted)
Experimental: Compounds contained herein were evaluated for their ability to inhibit the methyltransferase activity of EZH2 within the PRC2 complex. Human PRC2 complex was prepared by co-expressing each of the 5 member proteins (FLAG-EZH2, EED, SUZ12, RbAp48, AEBP2) in Sf9 cells followed by co-purification. Enzyme activity was measured in a scintillation proximity assay (SPA) where a tritiated methyl group is transferred from 3H-SAM to a lysine residue on Histone H3 of a mononucleosome, purified from HeLa cells. Mononucleosomes were captured on SPA beads and the resulting signal is read on a ViewLux plate reader.
Part A. Compound Preparation
• 1. Prepare 10 mM stock of compounds from solid in 100% DMSO. • 2. Set up an 11-point serial dilution (1:3 dilution, top concentration 10 mM) in 100% DMSO for each test compound in a 384 well plate leaving columns 6 and 18 for DMSO controls. • 3. Dispense […] of compound from the dilution plate into reaction plates (Grenier Bio-One, 384-well, Cat #784075). Part B. Reagent Preparation Prepare the following solutions: • 1. 50 mM Tris-HCl, pH 8: Per 1 L of base buffer, combine 1 M Tris-HCl, pH 8 (50 mL) and distilled water (950 mL). • 2. […] 2× Enzyme Solution: Per 10 mL of 2× Enzyme Solution, combine 1× Assay Buffer and PRC2 complex to provide a final enzyme concentration of 10 nM. • 4. SPA Bead Suspension: Per 1 mL of SPA Bead Suspension, combine PS-PEI coated LEADSeeker beads (40 mg) and ddH2O (1 mL) to provide a final concentration of 40 mg/mL. • 5. 2× Substrate Solution: Per 10 mL of 2× Substrate Solution, combine 1× Assay Buffer (9728.55 uL), 800 ug/mL mononucleosomes (125 uL), 1 mM cold SAM (4 uL), and 7.02 uM 3H-SAM (142.45 uL; 0.55 mCi/mL) to provide a final concentration of 5 ug/mL nucleosomes, 0.2 uM cold SAM, and 0.05 uM 3H-SAM. • 6. 2.67× Quench/Bead Mixture: Per 10 mL of 2.67× Quench/Bead Mixture, combine ddH2O (9358 uL), 10 mM cold SAM (267 uL), 40 mg/mL Bead Suspension (375 uL) to provide a final concentration of 100 uM cold SAM and 0.5 mg/mL SPA beads. Part C. Assay Reaction in 384-well Grenier Bio-One Plates Compound Addition • 1. Dispense […] of 100× Compound to test wells (as noted above). • 2. Dispense […] of 100% DMSO to columns 6 & 18 for high and low controls, respectively. Assay • 1. […] Dispense 5 uL/well of 2× Enzyme Solution to columns 1-17, 19-24. • 3. Spin assay plates for ˜1 minute at 500 rpm. • 4. Stack the assay plates, covering the top plate. • 5. Incubate the compound/DMSO with the enzyme for 30 minutes at room temperature. • 6. Dispense 5 uL/well of 2× Substrate Solution to columns 1-24. • 7. Spin assay plates for ˜1 minute at 500 rpm. • 8. Stack the assay plates, covering the top plate. • 9. Incubate the assay plates at room temperature for 1 hour. Quench/Bead Addition • 1. Dispense 5 uL/well of the 3× Quench/Bead Mixture to columns 1-24. • 2. Seal the top of each assay plate with adhesive TopSeal. • 3. Spin assay plates for ˜1 minute at 500 rpm. • 4. Equilibrate the plates for >20 min. Read Plates • 1. Read the assay plates on the Viewlux Plate Reader utilizing the 613 nm emission filter with a 300 s read time. Reagent addition can be done manually or with automated liquid handler. • The final DMSO concentration in this assay is 1%. • The positive control is in column 6; negative control is in column 18. • Final starting concentration of compounds is 100 μM. Part D. Data Analysis
Percent inhibition was calculated relative to the DMSO control for each compound concentration and the resulting values were fit using standard IC50 fitting parameters within the ABASE data fitting software package.

T1 sequence (Q15910 whole entry): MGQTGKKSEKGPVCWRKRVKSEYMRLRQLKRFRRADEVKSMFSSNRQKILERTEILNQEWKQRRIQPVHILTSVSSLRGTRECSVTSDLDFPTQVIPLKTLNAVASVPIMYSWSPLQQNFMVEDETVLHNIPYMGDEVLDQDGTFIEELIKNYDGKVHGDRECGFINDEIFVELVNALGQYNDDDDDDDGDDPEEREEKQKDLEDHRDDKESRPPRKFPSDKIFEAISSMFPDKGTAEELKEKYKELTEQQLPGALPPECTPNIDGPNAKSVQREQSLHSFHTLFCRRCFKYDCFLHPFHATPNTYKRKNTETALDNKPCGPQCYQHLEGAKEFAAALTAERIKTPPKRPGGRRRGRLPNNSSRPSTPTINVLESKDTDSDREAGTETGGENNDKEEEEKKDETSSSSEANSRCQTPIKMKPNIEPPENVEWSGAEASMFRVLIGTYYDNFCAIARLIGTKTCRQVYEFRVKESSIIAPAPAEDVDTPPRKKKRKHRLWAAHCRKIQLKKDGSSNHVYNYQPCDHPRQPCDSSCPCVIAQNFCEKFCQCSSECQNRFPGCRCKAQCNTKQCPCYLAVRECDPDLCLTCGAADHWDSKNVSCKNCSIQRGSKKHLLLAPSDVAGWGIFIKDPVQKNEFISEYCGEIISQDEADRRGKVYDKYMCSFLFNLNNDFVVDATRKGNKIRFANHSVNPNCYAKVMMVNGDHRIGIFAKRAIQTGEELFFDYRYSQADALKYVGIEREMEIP
T1 sequence (O75530 whole entry partner): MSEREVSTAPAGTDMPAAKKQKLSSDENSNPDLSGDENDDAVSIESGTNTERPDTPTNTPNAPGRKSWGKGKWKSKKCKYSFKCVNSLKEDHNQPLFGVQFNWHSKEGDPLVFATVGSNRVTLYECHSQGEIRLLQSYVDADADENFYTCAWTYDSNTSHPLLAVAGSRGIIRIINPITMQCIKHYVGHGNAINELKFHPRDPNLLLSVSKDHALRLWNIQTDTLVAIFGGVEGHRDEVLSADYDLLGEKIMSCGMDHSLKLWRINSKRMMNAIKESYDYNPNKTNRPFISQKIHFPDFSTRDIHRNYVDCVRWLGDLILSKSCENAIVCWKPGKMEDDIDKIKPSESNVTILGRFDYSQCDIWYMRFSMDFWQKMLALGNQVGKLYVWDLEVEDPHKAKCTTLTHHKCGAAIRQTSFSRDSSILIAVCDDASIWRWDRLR
T1 sequence (Q15022 whole entry partner): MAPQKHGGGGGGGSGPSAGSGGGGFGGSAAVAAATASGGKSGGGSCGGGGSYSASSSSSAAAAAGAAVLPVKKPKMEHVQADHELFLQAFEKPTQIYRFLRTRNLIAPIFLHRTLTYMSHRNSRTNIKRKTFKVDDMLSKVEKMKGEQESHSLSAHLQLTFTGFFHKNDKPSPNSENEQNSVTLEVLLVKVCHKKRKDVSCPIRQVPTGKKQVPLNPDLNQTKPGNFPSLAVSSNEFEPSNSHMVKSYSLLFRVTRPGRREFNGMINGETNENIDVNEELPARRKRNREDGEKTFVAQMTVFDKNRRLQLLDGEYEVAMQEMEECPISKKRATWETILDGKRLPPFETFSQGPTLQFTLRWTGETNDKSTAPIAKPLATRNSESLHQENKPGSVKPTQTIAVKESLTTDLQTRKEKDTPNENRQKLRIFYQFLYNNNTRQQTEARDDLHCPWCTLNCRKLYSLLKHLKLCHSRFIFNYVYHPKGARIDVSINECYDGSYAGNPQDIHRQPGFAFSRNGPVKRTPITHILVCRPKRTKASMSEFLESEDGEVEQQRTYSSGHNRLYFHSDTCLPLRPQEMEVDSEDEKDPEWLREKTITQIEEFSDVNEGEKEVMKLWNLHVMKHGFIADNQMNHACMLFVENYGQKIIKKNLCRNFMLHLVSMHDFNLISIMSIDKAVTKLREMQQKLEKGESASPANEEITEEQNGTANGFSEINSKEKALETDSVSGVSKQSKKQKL
T1 sequence (Q09028 whole entry partner): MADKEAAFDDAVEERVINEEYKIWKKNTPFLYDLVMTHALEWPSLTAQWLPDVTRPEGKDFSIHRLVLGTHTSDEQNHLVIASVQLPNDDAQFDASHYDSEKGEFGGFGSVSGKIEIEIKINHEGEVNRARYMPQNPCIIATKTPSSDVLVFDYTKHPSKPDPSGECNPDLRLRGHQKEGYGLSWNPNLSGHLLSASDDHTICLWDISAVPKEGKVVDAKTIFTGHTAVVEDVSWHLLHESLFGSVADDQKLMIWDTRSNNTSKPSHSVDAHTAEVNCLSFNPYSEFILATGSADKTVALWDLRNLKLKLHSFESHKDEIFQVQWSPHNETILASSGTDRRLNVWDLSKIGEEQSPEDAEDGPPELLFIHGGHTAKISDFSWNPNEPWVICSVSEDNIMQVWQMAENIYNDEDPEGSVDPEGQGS
T1 sequence (Q6ZN18 whole entry partner): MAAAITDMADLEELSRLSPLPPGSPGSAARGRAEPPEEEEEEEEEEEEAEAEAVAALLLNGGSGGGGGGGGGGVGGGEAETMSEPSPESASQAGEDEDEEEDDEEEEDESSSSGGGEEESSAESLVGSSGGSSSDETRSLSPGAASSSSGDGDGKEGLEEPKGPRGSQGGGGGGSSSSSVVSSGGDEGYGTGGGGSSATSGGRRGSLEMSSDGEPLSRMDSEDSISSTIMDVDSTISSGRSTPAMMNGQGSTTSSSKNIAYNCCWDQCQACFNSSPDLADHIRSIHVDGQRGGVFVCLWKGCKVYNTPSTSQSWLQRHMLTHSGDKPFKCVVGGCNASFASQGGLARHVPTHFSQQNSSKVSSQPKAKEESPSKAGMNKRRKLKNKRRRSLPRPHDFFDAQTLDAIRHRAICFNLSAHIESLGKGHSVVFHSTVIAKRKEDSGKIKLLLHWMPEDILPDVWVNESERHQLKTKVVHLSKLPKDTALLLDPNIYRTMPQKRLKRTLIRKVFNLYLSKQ

SMILES: Cc1cc(C)c(CNC(=O)c2cc(Nc3ccc(N4CCN(C)CC4)nc3)cc3c2c(C)cn3C(C)C)c(=O)[nH]1 [Example 361, N-[(4,6-dimethyl-2-oxo-1,2-dihydro-3-pyridinyl)methyl]-3-methyl-1-(1-methylethyl)-6-{[6-(4-methyl-1-piperazinyl)-3-pyridinyl]amino)-1H-indole-4-carboxamide]
- IC50: 55 nM

SMILES: Cc1cc(C)c(CNC(=O)c2cc(NC(=O)N3CCN(C)CC3)cc3c2c(C)cn3C(C)C)c(=O)[nH]1 [Example 362, N-[(4,6-dimethyl-2-oxo-1,2-dihydro-3-pyridinyl)methyl]-3-methyl-1-(1-methylethyl)-6-{[(4-methyl-1-piperazinyl)carbonyl]amino}-1H-indole-4-carboxamide]
- IC50: 129 nM
